In the supplement of paper PMC10307832:

Columns and labels:
Assay in all cases: relative viability (nuclei count vs DMSO), 5 days (fraction); higher = more cells survive
[1] = system: EKVX
Summary of the method: (§1)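 After 5 days of treatment, lung cancer cells in 1536-well plates were fixed and stained in a single step (final 0.05% Triton X-100, 1% formaldehyde, 1 ug/ml Hoechst) and their nuclei counted on 4× images. Treatment had been applied by pin tool the day after seeding as one drug alone or as a fixed anchor-drug dose with five library-drug doses (not always all listed) in √10 steps. Relative viability is the nuclei count of treated wells divided by that of vehicle wells, and values are medians of duplicate plates.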

[2] = system: LCLC-97TM1
Summary of the method: as §1

[3] = system: NCI-H647
Summary of the method: as §1

[4] = system: NCI-H2126
Summary of the method: as §1

[5] = system: EPLC-272H
Summary of the method: as §1

[6] = system: LU99A
Summary of the method: as §1

[7] = system: BEN
Summary of the method: as §1

[8] = system: NCI-H1975
Summary of the method: as §1

[9] = system: NCI-H1395
Summary of the method: as §1

[10] = system: NCI-H1666
Summary of the method: as §1

[11] = system: NCI-H2342
Summary of the method: as §1

[12] = system: NCI-H2087
Summary of the method: as §1

[13] = system: COR-L 105
Summary of the method: as §1

[14] = system: NCI-H1437
Summary of the method: as §1

[15] = system: LOU-NH91
Summary of the method: as §1

[16] = system: NCI-H2085
Summary of the method: as §1

[17] = system: H3255
Summary of the method: as §1

[18] = system: HOP-62
Summary of the method: as §1

[19] = system: 201T
Summary of the method: as §1

[20] = system: NCI-H358
Summary of the method: as §1

[21] = system: SW 1573
Summary of the method: as §1

[22] = system: HCC-827
Summary of the method: as §1

[23] = system: PC-3 [JPC-3]
Summary of the method: as §1

## C[C@@H]1CN(CC(=O)Nc2ccc3c(c2)Cc2cccc(-c4cc(=O)cc(N5CCOCC5)o4)c2S3)C[C@H](C)O1 + Cc1nc(Nc2ncc(C(=O)Nc3c(C)cccc3Cl)s2)cc(N2CCN(CCO)CC2)n1 [Dasatinib] (partner 0.075 µM)
[1]; first compound 0.04 µM
  relative viability: 0.576
[1]; first compound 0.1265 µM
  relative viability: 0.568
[1]; first compound 0.4 µM
  relative viability: 0.603
[1]; first compound 4 µM
  relative viability: 0.475
[2]; first compound 0.04 µM
  relative viability: 0.839
[2]; first compound 0.1265 µM
  relative viability: 0.744
[2]; first compound 0.4 µM
  relative viability: 0.794
[2]; first compound 4 µM
  relative viability: 0.893
[3]; first compound 0.04 µM
  relative viability: 0.236
[3]; first compound 0.1265 µM
  relative viability: 0.159
[3]; first compound 0.4 µM
  relative viability: 0.161
[3]; first compound 4 µM
  relative viability: 0.146
[4]; first compound 0.04 µM
  relative viability: 0.607
[4]; first compound 0.1265 µM
  relative viability: 0.604
[4]; first compound 0.4 µM
  relative viability: 0.467
[4]; first compound 4 µM
  relative viability: 0.418
[5]; first compound 0.04 µM
  relative viability: 0.459
[5]; first compound 0.1265 µM
  relative viability: 0.284
[5]; first compound 0.4 µM
  relative viability: 0.319
[5]; first compound 4 µM
  relative viability: 0.341
[6]; first compound 0.04 µM
  relative viability: 0.523
[6]; first compound 0.1265 µM
  relative viability: 0.491
[6]; first compound 0.4 µM
  relative viability: 0.488
[6]; first compound 4 µM
  relative viability: 0.523
[7]; first compound 0.04 µM
  relative viability: 0.308
[7]; first compound 0.1265 µM
  relative viability: 0.265
[7]; first compound 0.4 µM
  relative viability: 0.333
[7]; first compound 4 µM
  relative viability: 0.377
[8]; first compound 0.04 µM
  relative viability: 0.378
[8]; first compound 0.1265 µM
  relative viability: 0.39
[8]; first compound 0.4 µM
  relative viability: 0.368
[8]; first compound 4 µM
  relative viability: 0.249
[9]; first compound 0.04 µM
  relative viability: 0.396
[9]; first compound 0.1265 µM
  relative viability: 0.387
[9]; first compound 0.4 µM
  relative viability: 0.366
[9]; first compound 4 µM
  relative viability: 0.368
[10]; first compound 0.04 µM
  relative viability: 0.831
[10]; first compound 0.1265 µM
  relative viability: 0.805
[10]; first compound 0.4 µM
  relative viability: 0.905
[10]; first compound 4 µM
  relative viability: 0.788
[11]; first compound 0.04 µM
  relative viability: 0.326
[11]; first compound 0.1265 µM
  relative viability: 0.292
[11]; first compound 0.4 µM
  relative viability: 0.29
[11]; first compound 4 µM
  relative viability: 0.306
[12]; first compound 0.04 µM
  relative viability: 0.971
[12]; first compound 0.1265 µM
  relative viability: 0.852
[12]; first compound 0.4 µM
  relative viability: 0.894
[12]; first compound 4 µM
  relative viability: 0.743
[13]; first compound 0.04 µM
  relative viability: 0.348
[13]; first compound 0.1265 µM
  relative viability: 0.413
[13]; first compound 0.4 µM
  relative viability: 0.383
[13]; first compound 4 µM
  relative viability: 0.336
[14]; first compound 0.04 µM
  relative viability: 0.334
[14]; first compound 0.1265 µM
  relative viability: 0.34
[14]; first compound 0.4 µM
  relative viability: 0.387
[14]; first compound 4 µM
  relative viability: 0.359
[15]; first compound 0.04 µM
  relative viability: 0.588
[15]; first compound 0.1265 µM
  relative viability: 0.51
[15]; first compound 0.4 µM
  relative viability: 0.476
[15]; first compound 4 µM
  relative viability: 0.492
[16]; first compound 0.04 µM
  relative viability: 0.222
[16]; first compound 0.1265 µM
  relative viability: 0.245
[16]; first compound 0.4 µM
  relative viability: 0.235
[16]; first compound 4 µM
  relative viability: 0.247
[17]; first compound 0.04 µM
  relative viability: 0.432
[17]; first compound 0.1265 µM
  relative viability: 0.347
[17]; first compound 0.4 µM
  relative viability: 0.424
[17]; first compound 4 µM
  relative viability: 0.346
[18]; first compound 0.04 µM
  relative viability: 0.664
[18]; first compound 0.1265 µM
  relative viability: 0.57
[18]; first compound 0.4 µM
  relative viability: 0.687
[18]; first compound 4 µM
  relative viability: 0.518
[19]; first compound 0.04 µM
  relative viability: 0.624
[19]; first compound 0.1265 µM
  relative viability: 0.525
[19]; first compound 0.4 µM
  relative viability: 0.581
[19]; first compound 4 µM
  relative viability: 0.52
[20]; first compound 0.04 µM
  relative viability: 0.2
[20]; first compound 0.1265 µM
  relative viability: 0.163
[20]; first compound 0.4 µM
  relative viability: 0.144
[20]; first compound 4 µM
  relative viability: 0.157
[21]; first compound 0.04 µM
  relative viability: 0.736
[21]; first compound 0.1265 µM
  relative viability: 0.613
[21]; first compound 0.4 µM
  relative viability: 0.515
[21]; first compound 4 µM
  relative viability: 0.355
[22]; first compound 0.04 µM
  relative viability: 0.396
[22]; first compound 0.1265 µM
  relative viability: 0.324
[22]; first compound 0.4 µM
  relative viability: 0.344
[22]; first compound 4 µM
  relative viability: 0.311
[23]; first compound 0.04 µM
  relative viability: 0.983
[23]; first compound 0.1265 µM
  relative viability: 1.06
[23]; first compound 0.4 µM
  relative viability: 1.01
[23]; first compound 4 µM
  relative viability: 0.918
